We go through 40 compounds from US9422240B2, “Partially saturated nitrogen-containing heterocyclic compound” (TAISHO PHARMACEUTICAL CO., LTD, priority 2012, dated 2016).

The target in test [1] is T1, human PHD2 (Homo sapiens (Human), UniProt Q9GZT9). Description: Test 1: human PHD2 inhibitory activity, [14C]-2-oxoglutarate to [14C]-succinic acid radiometric assay with HIF-1α peptide. The class given is biochemical. The conditions noted are these: test compound's concentration 1 μM; Test 1, [14C]-2-oxoglutarate radiometric assay; read-out: Percent inhibition (% at 1 μM). The gist of the method:
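Activity was measured by radiometric counting of [14C]-succinic acid formed during prolyl hydroxylation of a 19-mer HIF-1α peptide, after DNPH removal of residual [14C]-2-oxoglutarate. Baculovirus-expressed human PHD2 lysate (4 μg/well) reacted for 15 min at 37° C. Substrate-free and compound-free wells served as reference points for inhibition.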

In test [2] the target is T1, human PHD2. Description: Test 2: human PHD2 inhibitory activity, fluorescence polarization assay of HIF-1α peptide proline hydroxylation. Type of test: biochemical. Conditions: test compound's concentration 1 μM; Test 2, fluorescence polarization assay; read-out: Percent inhibition (% at 1 μM). The procedure, abridged:
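A 19-mer HIF-1α peptide served as substrate, with the reaction started by 40 ng/well human PHD2 (cell lysate of NM_022051-transfected cells) and run 20 min at 30° C. before EDTA stop. Hydroxylated product bound anti-HIF-OH antibody, read by fluorescence polarization versus no-compound control.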
For orientation: Fluorescence polarisation rises when a labelled molecule tumbles more slowly, as on binding a larger partner.

The structures appear in SMILES notation.

T1 sequence (Q9GZT9 whole entry): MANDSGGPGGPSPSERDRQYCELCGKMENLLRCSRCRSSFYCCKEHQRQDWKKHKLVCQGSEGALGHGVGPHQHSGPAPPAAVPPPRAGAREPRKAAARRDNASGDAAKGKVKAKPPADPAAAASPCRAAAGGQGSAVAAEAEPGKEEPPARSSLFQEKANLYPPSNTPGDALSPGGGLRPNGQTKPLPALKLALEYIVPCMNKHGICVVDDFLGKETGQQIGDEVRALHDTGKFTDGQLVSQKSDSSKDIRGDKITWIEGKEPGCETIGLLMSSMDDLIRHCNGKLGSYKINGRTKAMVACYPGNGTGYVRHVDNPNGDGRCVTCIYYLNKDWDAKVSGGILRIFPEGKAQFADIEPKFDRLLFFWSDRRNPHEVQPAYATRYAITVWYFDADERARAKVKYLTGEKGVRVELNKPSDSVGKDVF

As usually defined, the inhibition is the change of the read-out against control, counted positive when it falls. Regarding `O=C(O)CNC(=O)C1=C(O)CC2(COC2)N(CC2CCC(c3ccccc3)CC2)C1=O` (centres unmarked) [Ex. 1-132], the inhibition at 1 µM at human PHD2 [1] worked out at 103%; on human PHD2 [2], 94%.

For the compound `O=C(O)CNC(=O)C1=C(O)CC2(COC2)N(Cc2ccc(-c3ccc(C(F)(F)F)cc3)cc2)C1=O` [Ex. 1-133], the inhibition at 1 µM on human PHD2 [1] stood at 104%; on human PHD2 [2] it was 97%.

In the case of `O=C(O)CNC(=O)C1=C(O)CCN(Cc2ccc(C(F)(F)F)c(F)c2F)C1=O` [Ex. 1-134], the inhibition at 1 µM at human PHD2 [1] was determined as 86%; on human PHD2 [2], 85%.

With `O=C(O)CNC(=O)C1=C(O)CCN(Cc2c(F)cc(C(F)(F)F)cc2F)C1=O` [Ex. 1-135], the inhibition at 1 µM on human PHD2 [1] and at human PHD2 [2] was 78% in each case.

Turning to `O=C(O)CNC(=O)C1=C(O)CCN(Cc2ccc(OC(F)(F)C(F)F)cc2)C1=O` [Ex. 1-136], the inhibition at 1 µM was 91% on human PHD2 [1] and 88% on human PHD2 [2].

Consider `O=C(O)CNC(=O)C1=C(O)CC2(CCC2)N(CC2CCC(c3ccccc3)CC2)C1=O` (centres unmarked) [Ex. 1-137], for which the inhibition at 1 µM at human PHD2 [1] amounted to 78%; on human PHD2 [2] it was 92%.

As for `CC(C)(C)c1ccc(-c2ccc(CN3C(=O)C(C(=O)NCC(=O)O)=C(O)CC34COC4)cc2)cc1` [Ex. 1-138], the inhibition at 1 µM was 83% on human PHD2 [1] and 97% on human PHD2 [2].

Take `O=C(O)CNC(=O)C1=C(O)CCN(Cc2ccc(F)cc2)C1=O` [Ex. 1-139]: the inhibition at 1 µM on human PHD2 [1] is 72%; on human PHD2 [2] it was 78%.

For `O=C(O)CNC(=O)C1=C(O)CCN(Cc2ccc(C(F)(F)C(F)(F)F)cc2)C1=O` [Ex. 1-140], the inhibition at 1 µM on human PHD2 [1] worked out at 79%; at human PHD2 [2] it was 85%.

On to `O=C(O)CNC(=O)C1=C(O)CC2(CCCCC2)N(Cc2ccc(C(F)(F)F)nc2)C1=O` [Ex. 1-141], for which the values for the inhibition at 1 µM at human PHD2 [1] and on human PHD2 [2] were 64% and 62%, respectively.

As for `O=C(O)CNC(=O)C1=C(O)CC2(CCCCC2)N(Cc2ccc(C(F)(F)F)cn2)C1=O` [Ex. 1-142], the figures for the inhibition at 1 µM on human PHD2 [1] and at human PHD2 [2] were 54% and 52%, respectively.

Turning to `O=C(O)CNC(=O)C1=C(O)C2CCCCC2N(Cc2ccc(C(F)(F)F)cc2)C1=O` (centres unmarked) [Ex. 1-143], the inhibition at 1 µM on human PHD2 [1] worked out at 41%; at human PHD2 [2] it was 65%.

Take `CC1CN(Cc2ccc(Br)cc2)C(=O)C(C(=O)NCC(=O)O)=C1O` (centres unmarked) [Ex. 1-144]: the values for the inhibition at 1 µM on human PHD2 [1] and on human PHD2 [2] were 76% and 85%, respectively.

In the case of `O=C(O)CNC(=O)C1=C(O)CCN(Cc2ccc(Br)cc2F)C1=O` [Ex. 1-145], the inhibition at 1 µM at human PHD2 [1] was determined as 88%; at human PHD2 [2], 83%.

As to `CC(c1ccc(C(F)(F)F)cc1)N1CCC(O)=C(C(=O)NCC(=O)O)C1=O` (centres unmarked) [Ex. 1-146], the values for the inhibition at 1 µM on human PHD2 [1] and at human PHD2 [2] were 69% and 70%, respectively.

With `O=C(O)CNC(=O)C1=C(O)C2(CC2)CN(Cc2ccc(C(F)(F)F)cc2)C1=O` [Ex. 1-147], the values for the inhibition at 1 µM at human PHD2 [1] and at human PHD2 [2] were 84% and 88%, respectively.

As for `CC1CC(O)=C(C(=O)NCC(=O)O)C(=O)N1Cc1ccc(Br)cc1` (centres unmarked) [Ex. 1-148], the inhibition at 1 µM stood at 78% at human PHD2 [1] and 82% on human PHD2 [2].

Regarding `CC1CC(O)=C(C(=O)NCC(=O)O)C(=O)N1Cc1ccc(OC(F)(F)F)cc1` (centres unmarked) [Ex. 1-149], the inhibition at 1 µM at human PHD2 [1] and on human PHD2 [2] was 74% in each case.

Turning to `CC1(C)CC(O)=C(C(=O)NCC(=O)O)C(=O)N1Cc1ccc(Br)cc1` [Ex. 1-150], the inhibition at 1 µM on human PHD2 [1] worked out at 63%; at human PHD2 [2] it was 71%.

With `CC1(C)CC(O)=C(C(=O)NCC(=O)O)C(=O)N1Cc1ccc(OC(F)(F)F)cc1` [Ex. 1-151], the inhibition at 1 µM on human PHD2 [1] turned out to be 57%; on human PHD2 [2], 63%.

For the compound `O=C(O)CNC(=O)C1=C(O)CCN(Cc2ccc3c(c2)OC(F)(F)O3)C1=O` [Ex. 1-152], the inhibition at 1 µM at human PHD2 [1] was found to be 82%; on human PHD2 [2], 83%.

Consider `CCC(c1ccc(C(F)(F)F)cc1)N1CCC(O)=C(C(=O)NCC(=O)O)C1=O` (centres unmarked) [Ex. 1-153], for which the inhibition at 1 µM at human PHD2 [1] was found to be 64%; at human PHD2 [2], 63%.

Regarding `O=C(O)CNC(=O)C1=C(O)CC2(CCC2)N(Cc2ccc(OC(F)(F)F)cc2)C1=O` [Ex. 1-154], the inhibition at 1 µM turned out to be 77% at human PHD2 [1] and 81% at human PHD2 [2].

Take `O=C(O)CNC(=O)C1=C(O)CC2(CCC2)N(Cc2ccc(Br)cc2)C1=O` [Ex. 1-155]: the inhibition at 1 µM on human PHD2 [1] stood at 82%; at human PHD2 [2] it was 83%.

As for `O=C(O)CNC(=O)C1=C(O)CC2(CCCC2)N(Cc2ccc(C(F)(F)F)cc2)C1=O` [Ex. 1-156], the inhibition at 1 µM was determined as 70% on human PHD2 [1] and 80% at human PHD2 [2].

Turning to `CC1(C)CC(O)=C(C(=O)NCC(=O)O)C(=O)N1Cc1ccc(Cl)cc1` [Ex. 1-157], the inhibition at 1 µM was found to be 67% at human PHD2 [1] and 73% on human PHD2 [2].

`CC1(C)CC(O)=C(C(=O)NCC(=O)O)C(=O)N1Cc1ccc(Cl)c(Cl)c1` [Ex. 1-158]: the inhibition at 1 µM at human PHD2 [1] is 67%; on human PHD2 [2], 75%.

With `O=C(O)CNC(=O)C1=C(O)CCN(Cc2ccc(OC(F)(F)F)c(Cl)c2)C1=O` [Ex. 1-159], the inhibition at 1 µM at human PHD2 [1] was determined as 78%; on human PHD2 [2], 90%.

For the compound `O=C(O)CNC(=O)C1=C(O)CCN(Cc2ccc(Cl)c(OC(F)(F)F)c2)C1=O` [Ex. 1-160], the values for the inhibition at 1 µM at human PHD2 [1] and on human PHD2 [2] were 74% and 85%, respectively.

As for `CC1(C)CC(O)=C(C(=O)NCC(=O)O)C(=O)N1Cc1ccc(OC(F)F)cc1` [Ex. 1-161], the inhibition at 1 µM at human PHD2 [1] and on human PHD2 [2] was 62% in each case.

Consider `CC1CN(Cc2ccc(Cl)cc2)C(=O)C(C(=O)NCC(=O)O)=C1O` (centres unmarked) [Ex. 1-162], for which the inhibition at 1 µM at human PHD2 [1] came to 78%; on human PHD2 [2] it was 77%.

With `CC1CN(Cc2ccc(Cl)c(Cl)c2)C(=O)C(C(=O)NCC(=O)O)=C1O` (centres unmarked) [Ex. 1-163], the inhibition at 1 µM stood at 84% at human PHD2 [1] and 90% on human PHD2 [2].

As for `CC1(C)CC(O)=C(C(=O)NCC(=O)O)C(=O)N1Cc1ccc(OC(F)(F)F)c(Cl)c1` [Ex. 1-164], the inhibition at 1 µM is 49% on human PHD2 [1] and 66% at human PHD2 [2].

With `CC1(C)CC(O)=C(C(=O)NCC(=O)O)C(=O)N1Cc1ccc(Cl)c(OC(F)(F)F)c1` [Ex. 1-165], the inhibition at 1 µM is 42% on human PHD2 [1] and 55% on human PHD2 [2].

For the compound `O=C(O)CNC(=O)C1=C(O)CC2(CCC2)N(Cc2ccc(Cl)cc2)C1=O` [Ex. 1-166], the results for the inhibition at 1 µM on human PHD2 [1] and at human PHD2 [2] were 82% and 86%, respectively.

Take `O=C(O)CNC(=O)C1=C(O)CC2(CCC2)N(Cc2ccc(Cl)c(Cl)c2)C1=O` [Ex. 1-167]: the inhibition at 1 µM was 80% at human PHD2 [1] and 88% on human PHD2 [2].

As to `COc1ccc(CN2C(=O)C(C(=O)NCC(=O)O)=C(O)CC2(C)C)cc1OC(F)(F)F` [Ex. 1-169], the inhibition at 1 µM was 28% at human PHD2 [1] and 43% at human PHD2 [2].

As to `Cc1cc(CN2C(=O)C(C(=O)NCC(=O)O)=C(O)CC2(C)C)cc(C)c1OC(F)F` [Ex. 1-170], the inhibition at 1 µM at human PHD2 [1] was 35%; on human PHD2 [2], 45%.

With `CC1CC(O)=C(C(=O)NCC(=O)O)C(=O)N1Cc1ccc(Cl)cc1` (centres unmarked) [Ex. 1-171], the inhibition at 1 µM on human PHD2 [1] came to 81%; at human PHD2 [2], 82%.

On to `CC1CC(O)=C(C(=O)NCC(=O)O)C(=O)N1Cc1ccc(Cl)c(Cl)c1` (centres unmarked) [Ex. 1-172], for which the inhibition at 1 µM at human PHD2 [1] was 77%; on human PHD2 [2], 79%.
